Key:
[1] = cited from earlier work
[2] = mortality rate by supposed ingested dose in colchicine overdose; type: in vivo, human
Experimental: Although the dose ingested has an influence on the clinical picture, it is not, by itself, enough to allow prediction of the death of the patient. Indeed, the mortality rate in the three groups of supposed ingested dose equal to or less than 0.35 mg/kg, >0.35—equal or less than 0.7, and >0.7 were 0 (0%), 6/33 (18%), and 12/36 (33%) (Fisher's exact test: p<0.0001). The relation of mortality rate to the dose is statistically highly significant albeit being weak. Therefore, from a clinical viewpoint, other parameters reflecting the effects of the dose should be considered to define the likelihood of death in colchicine overdose.

SMILES: COc1cc2c(c(OC)c1OC)-c1ccc(OC)c(=O)cc1[C@@H](NC(C)=O)CC2 [colchicine, Colchicine]
- acute dose presumed to be fatal [1]: about 0.8 mg/kg
- mortality rate ([2]; supposed ingested dose >0.7 mg/kg, 12/36): 33%
- mortality rate ([2]; supposed ingested dose >0.35 to equal or less than 0.7 mg/kg, 6/33): 18%
- mortality rate ([2]; supposed ingested dose equal to or less than 0.35 mg/kg): 0%
